Earlier results as cited in US20070197544A1, “ILOPROST IN COMBINATION THERAPIES FOR THE TREATMENT OF PULMONARY ARTERIAL HYPERTENSION” (CoTherix, Inc., priority 2003, published 2007).
Structures can show the parent of a compound that is named as a salt. Where two headings read alike, the source gives them in different places.

Experiments:
[1] = administered by aerosolization, patients with pulmonary hypertension
[2] = continuous infusion, severe pulmonary hypertension
[3] = oral, at 3 and 6 months
[4] = at least one year of treatment
[5] = 20 mg, 12-week period
[6] = not given; remark: listed apart in the source
[7] = open pilot study
[8] = long-term use of aerosolized iloprost, severe pulmonary hypertension
[9] = versus placebo, severe PAH

CCCCC[C@H](O)/C=C/[C@@H]1[C@H]2C/C(=C/CCCC(=O)O)O[C@H]2C[C@H]1O [prostacyclin]
duration of effects (pulmonary vasodilatation) [1]: 15 min
mortality [2]: reduce mortality

CCCc1nc(C)c2c(=O)[nH]c(-c3cc(S(=O)(=O)N4CCN(CC)CC4)ccc3OCC)nn12 [Levitra, vardenafil HCl]
most commonly reported side effects (in vivo): headache, flushing, and stuffy or runny nose
erectile function (phase III clinical studies): Helped men get and keep an erection sufficient for satisfactory sexual performance

CC#CCC(C)[C@H](O)/C=C/[C@@H]1[C@H]2c3cccc(CCCC(=O)O)c3O[C@H]2C[C@H]1O (mixture of isomers) [Beraprost]
benefit in PAH [3]: shown a benefit

CN1CC(=O)N2[C@H](c3ccc4c(c3)OCO4)c3[nH]c4ccccc4c3C[C@@H]2C1=O [Cialis, Tadalafil]
most commonly reported treatment-emergent adverse effects ([4]; 10 mg or 20 mg): headache and upset stomach
discontinuation rate for any individual adverse event [4]: less than 1%
patients who discontinued the study due to side effects [4]: Five
most commonly reported (greater than or equal to 5 percent) treatment-emergent adverse effects [5]: headache, back pain, and upset stomach
patients who discontinued the study because of adverse events [5]: 5%

COc1ccccc1Oc1c(NS(=O)(=O)c2ccc(C(C)(C)C)cc2)nc(-c2ncccn2)nc1OCCO [bosentan]
liver toxicity ([6]; higher dose): liver toxicity occurred
six minute walk test ([6]; whole group, improvement greater at higher doses): improved

Cc1cc2c(cc1CC(=O)c1sccc1S(=O)(=O)Nc1onc(C)c1Cl)OCO2 [sitaxsentan]
decrease in pulmonary vascular resistance [7]: 30%
six minute walk test [7]: improvement

CC#CCC(C)[C@H](O)/C=C/[C@@H]1[C@H]2C/C(=C/CCCC(=O)O)C[C@H]2C[C@H]1O (stereo partly shown) [Iloprost]
clinical improvement [8]: substantial clinical improvement
exercise capacity [9]: improved exercise capacity
